Experimental data from PubChem BioAssay AID248 (DTP/NCI, 2004).
“And” between values parts separate entries of the source, which are not always exact repeats. Equal values may be shown once. Toxic doses and inconclusive results are not listed. No stated cut-off is given here; in the data, active means T/C of 150% or more; inactive means T/C below 125%.

Tested on: L1210 leukemia ip in BDF1 mice, survival T/C
Assay: NCI In Vivo Anticancer Drug Screen. Data for tumor model L1210 Leukemia (intraperitoneal) in B6D2F1 (BDF1) mice
Conditions: endpoint: mean survival time, higher = longer survival
How it was run: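 Mice bearing the transplanted tumor received compound or vehicle. Survival of the treated group was divided by that of the vehicle-treated control group to give the ratio.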

[1] = dose: 12.5 mg/kg/injection, schedule: Q04DX002 (ip), vehicle: saline
[2] = dose: 25.0 mg/kg/injection, schedule: Q04DX002 (ip), vehicle: saline
[3] = dose: 50.0 mg/kg/injection, schedule: Q04DX002 (ip), vehicle: saline
[4] = dose: 100.0 mg/kg/injection, schedule: Q04DX002 (ip), vehicle: Klucel (hydroxypropylcellulose) (HPC)
[5] = dose: 200.0 mg/kg/injection, schedule: Q04DX002 (ip), vehicle: Klucel (hydroxypropylcellulose) (HPC)
[6] = dose: 100.0 mg/kg/injection, schedule: Q01DX009 (ip), vehicle: saline with Tween-80
[7] = dose: 200.0 mg/kg/injection, schedule: Q01DX009 (ip), vehicle: saline with Tween-80
[8] = dose: 100.0 mg/kg/injection, schedule: Q01DX001 (ip), vehicle: saline
[9] = dose: 200.0 mg/kg/injection, schedule: Q01DX001 (ip), vehicle: saline
[10] = dose: 400.0 mg/kg/injection, schedule: Q01DX001 (ip), vehicle: saline
[11] = dose: 100.0 mg/kg/injection, schedule: Q01DX001 (ip), vehicle: other
[12] = dose: 200.0 mg/kg/injection, schedule: Q01DX001 (ip), vehicle: other
[13] = dose: 50.0 mg/kg/injection, schedule: Q01DX009 (ip), vehicle: saline with Tween-80

Measured: T/C

Cc1cc(N(CCCl)CCCl)c(C)cc1NC(=O)c1ccccc1
inactive: dose: 0.75 mg/kg/injection, schedule: Q01DX009 (ip), vehicle: other 109 % of control | dose: 1.5 mg/kg/injection, schedule: Q01DX009 (ip), vehicle: other 105 % of control | dose: 3.0 mg/kg/injection, schedule: Q01DX009 (ip), vehicle: other 124 % of control | dose: 5.0 mg/kg/injection, schedule: Q01DX001 (ip), vehicle: other 118 % of control | dose: 6.0 mg/kg/injection, schedule: Q01DX009 (ip), vehicle: carboxymethylcellulose (CMC) 119 % of control | dose: 10.0 mg/kg/injection, schedule: Q01DX001 (ip), vehicle: other 114 % of control | dose: 10.0 mg/kg/injection, schedule: Q01DX001 (ip), vehicle: saline 117 % of control | dose: 10.0 mg/kg/injection, schedule: Q01DX009 (ip), vehicle: carboxymethylcellulose (CMC) 119 % of control | dose: 17.6 mg/kg/injection, schedule: Q01DX001 (ip), vehicle: carboxymethylcellulose (CMC) 111 % of control | dose: 17.6 mg/kg/injection, schedule: Q01DX001 (ip), vehicle: other 110 % of control and 115 % of control | dose: 18.0 mg/kg/injection, schedule: Q01DX009 (ip), vehicle: carboxymethylcellulose (CMC) 117 % of control | dose: 20.0 mg/kg/injection, schedule: Q01DX001 (ip), vehicle: other 122 % of control | dose: 20.0 mg/kg/injection, schedule: Q01DX001 (ip), vehicle: saline 96 % of control | dose: 26.0 mg/kg/injection, schedule: Q01DX001 (ip), vehicle: carboxymethylcellulose (CMC) 120 % of control | dose: 26.0 mg/kg/injection, schedule: Q01DX001 (ip), vehicle: other 115 % of control | dose: 30.0 mg/kg/injection, schedule: Q01DX009 (ip), vehicle: carboxymethylcellulose (CMC) 101 % of control | dose: 30.0 mg/kg/injection, schedule: Q01DX009 (ip), vehicle: other 96 % of control | dose: 40.0 mg/kg/injection, schedule: Q01DX001 (ip), vehicle: other 124 % of control | dose: 40.0 mg/kg/injection, schedule: Q01DX001 (ip), vehicle: saline 122 % of control | dose: 80.0 mg/kg/injection, schedule: Q01DX001 (ip), vehicle: carboxymethylcellulose (CMC) 120 % of control | dose: 80.0 mg/kg/injection, schedule: Q01DX001 (ip), vehicle: saline 114 % of control | dose: 120.0 mg/kg/injection, schedule: Q01DX001 (ip), vehicle: carboxymethylcellulose (CMC) 88 % of control

COc1cc(C=O)ccc1OC(=O)Nc1ccc(F)c([N+](=O)[O-])c1
inactive: dose: 25.0 mg/kg/injection, schedule: Q01DX009 (ip), vehicle: other 97 % of control | dose: 50.0 mg/kg/injection, schedule: Q01DX009 (ip), vehicle: other 92 % of control | dose: 100.0 mg/kg/injection, schedule: Q01DX009 (ip), vehicle: other 97 % of control and 98 % of control

C=NN1CCOC1=O
inactive: dose: 100.0 mg/kg/injection, schedule: Q04DX002 (ip), vehicle: saline 106 % of control | dose: 200.0 mg/kg/injection, schedule: Q04DX002 (ip), vehicle: saline 91 % of control | dose: 400.0 mg/kg/injection, schedule: Q04DX002 (ip), vehicle: saline 111 % of control

C=CS(=O)Cc1ccccc1 (stereo unspecified)
inactive: [1] 112 % of control | [2] 94 % of control | [3] 98 % of control

CN(C)OC(=O)Nc1cccc(C(=O)ON(C)C)c1
inactive: dose: 100.0 mg/kg/injection, schedule: Q04DX002 (ip), vehicle: DMSO 99 % of control | dose: 200.0 mg/kg/injection, schedule: Q04DX002 (ip), vehicle: DMSO 101 % of control | dose: 400.0 mg/kg/injection, schedule: Q04DX002 (ip), vehicle: DMSO 101 % of control

O=C(/C=C/c1ccco1)c1ccc(O)cc1
inactive: [4] 101 % of control | [5] 90 % of control | dose: 400.0 mg/kg/injection, schedule: Q04DX002 (ip), vehicle: Klucel (hydroxypropylcellulose) (HPC) 93 % of control

CCOC(=O)c1c[nH]c2cc(OC)ccc2c1=O
inactive: [6] 92 % of control | [7] 93 % of control

Cc1cccc(Cl)c1NC(=O)c1c(Cl)c(Cl)c(Cl)c(Cl)c1C(=O)O
inactive: [4] 110 % of control | [5] 104 % of control

c1ccc2c(c1)oc1cc3ccncc3cc12
inactive: [8] 96 % of control | [9] 94 % of control | [10] 102 % of control

Cc1ccnc2ccc3ccccc3c12
inactive: [11] 101 % of control | [12] 107 % of control | dose: 400.0 mg/kg/injection, schedule: Q01DX001 (ip), vehicle: other 113 % of control

[O-]/[N+](C/[N+]([O-])=N\OCCCl)=N\OCCCl
inactive: dose: 100.0 mg/kg/injection, schedule: Q01DX001 (ip), vehicle: Klucel (hydroxypropylcellulose) (HPC) 91 % of control | dose: 200.0 mg/kg/injection, schedule: Q01DX001 (ip), vehicle: Klucel (hydroxypropylcellulose) (HPC) 91 % of control | dose: 400.0 mg/kg/injection, schedule: Q01DX001 (ip), vehicle: Klucel (hydroxypropylcellulose) (HPC) 91 % of control

Cc1cccc(C)c1NC(=O)NC/C(Br)=C/Br
inactive: dose: 75.0 mg/kg/injection, schedule: Q01DX009 (ip), vehicle: Klucel (hydroxypropylcellulose) (HPC) 100 % of control | dose: 150.0 mg/kg/injection, schedule: Q01DX009 (ip), vehicle: Klucel (hydroxypropylcellulose) (HPC) 100 % of control | dose: 300.0 mg/kg/injection, schedule: Q01DX009 (ip), vehicle: Klucel (hydroxypropylcellulose) (HPC) 104 % of control

NNC(=O)c1ccccc1O
inactive: dose: 50.0 mg/kg/injection, schedule: Q01DX001 (ip), vehicle: other 105 % of control | [13] 90 % of control | [11] 100 % of control | [6] 97 % of control | [12] 97 % of control | [7] 102 % of control

Cc1cccc(N=Cc2ccccc2O)c1
inactive: [13] 99 % of control | dose: 100.0 mg/kg/injection, schedule: Q01DX001 (ip), vehicle: carboxymethylcellulose (CMC) 95 % of control | [6] 97 % of control | dose: 200.0 mg/kg/injection, schedule: Q01DX001 (ip), vehicle: carboxymethylcellulose (CMC) 97 % of control | [7] 95 % of control | dose: 400.0 mg/kg/injection, schedule: Q01DX001 (ip), vehicle: carboxymethylcellulose (CMC) 103 % of control

O=C(O)c1ccc([N+](=O)[O-])cc1P(=O)(O)O
inactive: dose: 75.0 mg/kg/injection, schedule: Q04DX003 (ip), vehicle: saline with Tween-80 103 % of control

CC(C)(C)C#N
inactive: [8] 109 % of control | [9] 101 % of control | [10] 95 % of control

c1ccc(C[n+]2cccc3ccccc32)cc1
inactive: dose: 6.25 mg/kg/injection, schedule: Q01DX009 (ip), vehicle: saline 100 % of control | dose: 6.25 mg/kg/injection, schedule: Q04DX003 (ip), vehicle: saline 97 % of control | dose: 12.5 mg/kg/injection, schedule: Q01DX009 (ip), vehicle: saline 101 % of control | [1] 98 % of control | dose: 12.5 mg/kg/injection, schedule: Q04DX003 (ip), vehicle: saline 106 % of control | dose: 25.0 mg/kg/injection, schedule: Q01DX009 (ip), vehicle: saline 100 % of control | [2] 102 % of control | dose: 25.0 mg/kg/injection, schedule: Q04DX003 (ip), vehicle: saline 101 % of control | [3] 105 % of control

O=C(O)c1ccccc1/C=C/c1ccc([N+](=O)[O-])cc1
inactive: dose: 100.0 mg/kg/injection, schedule: Q01DX001 (ip), vehicle: saline with Tween-80 97 % of control

COc1cc2cc(C(=O)O)sc2cc1OC
inactive: [8] 91 % of control | [9] 91 % of control | [10] 91 % of control

C=CCc1ccc(OC(=O)Nc2ccc([N+](=O)[O-])cc2OC)c(OC)c1
inactive: dose: 100.0 mg/kg/injection, schedule: Q01DX009 (ip), vehicle: Klucel (hydroxypropylcellulose) (HPC) 96 % of control | dose: 200.0 mg/kg/injection, schedule: Q01DX009 (ip), vehicle: Klucel (hydroxypropylcellulose) (HPC) 93 % of control | dose: 400.0 mg/kg/injection, schedule: Q01DX009 (ip), vehicle: Klucel (hydroxypropylcellulose) (HPC) 96 % of control

S=P(NCCS)(N1CC1)N1CC1
inactive: [8] 106 % of control | [9] 101 % of control | [10] 101 % of control

NC(=O)CC(NC(=O)CCl)C(=O)O (stereo unspecified)
inactive: [6] 104 % of control | [7] 87 % of control | dose: 400.0 mg/kg/injection, schedule: Q01DX009 (ip), vehicle: saline with Tween-80 86 % of control
